Reference: patent publication US20230265378A1, “STIMULATING CELLULAR PRODUCTION OF EXOSOMES” (ROYAL MELBOURNE INSTITUTE OF TECHNOLOGY, priority 2020, published 2023)
Structures can show the parent of a compound that is named as a salt.

Tests used:
cells = conditions: within 2 to 72 hrs; dose dependent; cited from earlier work
intracellular Ca^2+ = experiment: Calcium influx study, intracellular Ca^2+ levels by Fura-2 AM assay; assay type: cell-based; conditions: amiloride HCl 100 μM 60 mins, thapsigargin 100 nM 25 mins, BAPTA-AM 10 μM 25 mins, in combinations; FIG. 9a iv, v, vi
Experimental: The data are represented in terms of the mean value±the standard error over quadruplicate runs, and the asterisks *, **, *** and **** indicate statistically significant differences with p<0:05, p<0:01, p<0:001 and p<0:0001, respectively.
The cells were seeded at a density of 0:05×10^6 cells per well in a 24-well glass-bottom plate and incubated at overnight in a humidified incubator. After incubation, they were treated with combinations of amiloride HCl (100 μM, for 60 mins)—a Ca^2+ ion channel blocker, thapsigargin (100 nM, for 25 mins)—an endoplasmic reticulum calcium ion inhibitor, and, BAPTA-AM (10 μM, for 25 mins)—a membrane permeable calcium chelator that removes intracellular calcium, following which they were incubated in the presence of 10 μM Fura2-AM for 60 mins at 37° C. to measure the intracellular Ca^2+ levels. The cells were then washed to remove the extracellular dye and replenished with DMEM, taking care to protect them from exposure to light. The media devoid of calcium from the inhibitor-treated cells was subsequently replaced with media containing calcium, and, where appropriate, exposed to the SRBW insonation (i.e. acoustic stimulation). Changes in the fluorescence intensity were measured with a spectrophotometric plate reader (CLARIOstar®, BMG LabTech, Mornington, VIC, Australia).

Question: Which enhancing exosome yield (cells) does the source give for C[C@H](CCC(=O)O)C[C@H](C)C[C@H](C)C(=O)/C=C(\O)[C@H](C)C[C@H](C)C/C=C/[C@@H](C)[C@@H](O)[C@@H](C)[C@@H](O)C[C@@H]1CC[C@@](C)([C@H]2CC[C@@](C)([C@@H](C)O)O2)O1 [ionomycin] here?
Answer: two-and-one-half-fold

Question: With N=C(N)NC(=O)c1nc(Cl)c(N)nc1N [amiloride HCl, amiloride hydrochloride] as the compound, how does the “effect on intracellular calcium store” value (intracellular Ca^2+) read?
Answer: deplete the intracellular calcium store

Question: With calcium phosphate as the compound, how does the enhancing exosome yield (cells) read?
Answer: two-and-one-half-fold

Question: For C/C=C(/C)C(=O)O[C@H]1C(C)=C2[C@H]([C@@H]1OC(=O)CCCCCCC)[C@@](C)(OC(C)=O)C[C@H](OC(=O)CCC)[C@@]1(O)[C@H]2OC(=O)[C@@]1(C)O [thapsigargin], which “effect on intracellular calcium store” value (intracellular Ca^2+) is on record?
Answer: deplete the intracellular calcium store
